Article PMC4448982, “LP-925219 maximizes urinary glucose excretion in mice by inhibiting both renal SGLT1 and SGLT2” (Pharmacology Research & Perspectives, 2015)

Tests used:
mouse SGLT1 = target: T1, mouse SGLT1 (Mus musculus, UniProt Q8C3K6); assay: 14C-AMG uptake assay, HEK293 cells expressing mouse SGLT1; type: cell-based; conditions: mean ± SD
T1 construct: expressed in transfected cells; host or cells: HEK293 (per abstract)
T1 sequence (Q8C3K6 1-665): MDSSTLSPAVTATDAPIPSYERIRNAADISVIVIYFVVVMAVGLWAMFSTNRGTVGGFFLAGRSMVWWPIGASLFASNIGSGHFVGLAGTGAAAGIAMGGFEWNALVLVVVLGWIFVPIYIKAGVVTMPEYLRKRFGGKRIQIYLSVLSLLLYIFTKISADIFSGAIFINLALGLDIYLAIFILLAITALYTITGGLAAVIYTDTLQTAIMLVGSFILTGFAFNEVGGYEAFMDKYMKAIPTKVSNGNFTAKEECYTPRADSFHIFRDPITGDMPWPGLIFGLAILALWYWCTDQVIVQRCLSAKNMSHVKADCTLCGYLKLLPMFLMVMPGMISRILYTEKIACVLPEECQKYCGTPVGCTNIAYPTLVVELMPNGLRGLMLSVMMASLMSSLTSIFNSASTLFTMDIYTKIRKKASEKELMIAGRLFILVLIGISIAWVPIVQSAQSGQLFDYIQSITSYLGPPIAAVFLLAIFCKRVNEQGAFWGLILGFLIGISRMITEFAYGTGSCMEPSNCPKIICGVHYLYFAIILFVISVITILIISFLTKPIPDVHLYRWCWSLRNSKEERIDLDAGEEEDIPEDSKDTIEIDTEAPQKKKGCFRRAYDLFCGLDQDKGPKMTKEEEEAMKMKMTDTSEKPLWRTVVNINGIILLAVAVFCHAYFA
Source text: (§1) Methods for generating cell lines expressing mouse, rat, and dog SGLT1 and SGLT2 are published (Powell et al. [2013b], [2014]). Full-length coding sequence of human SGLT1 (NP_000334) and human SGLT2 (NP_003032.1) with an HA-tag at the N-terminus were cloned into the mammalian expression vector pIRESpuro2 (Clontech, Mountain View, CA). HEK293 cells (ATCC, Manassas, VA) were transfected with the pIRESpuro2 vector containing human SGLT1 or SGLT2 and bulk stable cell lines were selected in the presence of 0.5 μg/mL of puromycin.
(§2) Cell lines expressing SGLT1 or SGLT2 were plated into poly-D-lysine-coated 384-well plates, and culture overnight in cell growth medium. Cells were washed, and then incubated in uptake buffer ([…], […] KCl, […] CaCl2, […] MgCl2, […] HEPES/Tris, 1 mg/mL of bovine serum albumin, pH7.4) containing [^14C]α-methylglucopyranoside (^14C-AMG), a nonmetabolizable glucose analog specific for sodium-dependent glucose transporters (Wright and Turk [2004]). The inhibition of SGLT1 or SGLT2 was determined by measuring SGLT1/2-mediated ^14C-AMG uptake in the presence of increasing compound concentrations of LP-925219. […] Standard sigmoidal dose–response model curves were fitted, and the IC50 value was computed as the LP-925219 concentration that inhibited the ^14C-AMG uptake by 50% between baseline and maximum uptake.

dog SGLT1 = target: T2, dog SGLT1 (Canis lupus familiaris, UniProt A0A8I3PYH5); assay: 14C-AMG uptake assay, cells expressing dog SGLT1; type: cell-based; conditions: mean ± SD
T2 sequence (A0A8I3PYH5 1-662): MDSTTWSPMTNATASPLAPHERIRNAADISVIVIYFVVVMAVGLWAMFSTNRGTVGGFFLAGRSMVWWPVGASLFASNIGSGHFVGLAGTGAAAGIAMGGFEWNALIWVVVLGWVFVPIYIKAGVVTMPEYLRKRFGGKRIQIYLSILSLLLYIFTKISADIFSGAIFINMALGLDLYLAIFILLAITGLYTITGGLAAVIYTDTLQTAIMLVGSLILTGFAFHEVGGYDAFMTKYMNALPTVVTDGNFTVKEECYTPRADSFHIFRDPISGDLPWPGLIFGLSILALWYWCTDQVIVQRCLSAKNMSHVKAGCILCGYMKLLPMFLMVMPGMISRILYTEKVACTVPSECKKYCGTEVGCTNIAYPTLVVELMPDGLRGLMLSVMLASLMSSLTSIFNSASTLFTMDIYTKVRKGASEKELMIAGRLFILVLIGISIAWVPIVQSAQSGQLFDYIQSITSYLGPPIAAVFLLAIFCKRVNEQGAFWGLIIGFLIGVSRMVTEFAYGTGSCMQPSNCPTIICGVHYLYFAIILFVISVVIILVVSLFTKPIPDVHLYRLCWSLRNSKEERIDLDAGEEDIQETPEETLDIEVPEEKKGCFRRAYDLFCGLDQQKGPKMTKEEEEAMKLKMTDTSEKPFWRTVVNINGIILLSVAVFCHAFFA
Source text: as §1, §2

human SGLT1 = target: T3, human SGLT1 (Homo sapiens, UniProt P13866); assay: Compound washout study, cells expressing human SGLT1
T3 sequence (P13866 1-664): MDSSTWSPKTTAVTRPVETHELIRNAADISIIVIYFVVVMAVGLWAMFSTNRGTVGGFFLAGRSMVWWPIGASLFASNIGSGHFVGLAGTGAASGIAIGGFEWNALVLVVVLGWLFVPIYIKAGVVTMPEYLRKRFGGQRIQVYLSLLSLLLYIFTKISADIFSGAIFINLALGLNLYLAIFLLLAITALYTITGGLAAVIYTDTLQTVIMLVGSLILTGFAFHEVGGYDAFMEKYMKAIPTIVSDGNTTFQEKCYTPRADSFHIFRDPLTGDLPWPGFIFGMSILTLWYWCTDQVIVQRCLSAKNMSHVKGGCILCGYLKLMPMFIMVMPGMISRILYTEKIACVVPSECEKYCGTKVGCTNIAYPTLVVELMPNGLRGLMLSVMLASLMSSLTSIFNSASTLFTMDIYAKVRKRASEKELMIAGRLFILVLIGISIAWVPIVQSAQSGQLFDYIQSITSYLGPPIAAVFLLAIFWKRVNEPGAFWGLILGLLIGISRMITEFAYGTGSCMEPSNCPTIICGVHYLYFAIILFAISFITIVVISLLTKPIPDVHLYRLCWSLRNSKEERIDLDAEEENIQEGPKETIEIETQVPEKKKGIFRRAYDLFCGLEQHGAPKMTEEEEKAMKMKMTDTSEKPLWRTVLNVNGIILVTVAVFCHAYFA
Source text: Cells expressing human SGLT2 were studied using the above protocol. […] Cells expressing human SGLT2 were studied using the above protocol.

COc1ccc(Cc2cc([C@@H]3O[C@H](SC)[C@@H](O)[C@H](O)[C@H]3O)ccc2Cl)cc1 [LP-925219]
IC50 (mouse SGLT1): 22.6 ± 1 nM
IC50 (dog SGLT1): 30.2 ± 2 nM
IC50 (human SGLT1; no wash protocol): 13 nM
IC50 (human SGLT1; washout protocol, 18-20 h recovery after 30 min treatment): 1310 nM
